Columns and labels:
[1] = target: T1, His tagged PTPN2 (TC45) protein (Homo sapiens, UniProt P17706); assay: Mobility Shift Assay used to determine potency of PTPN2 inhibitors; format: biochemical; conditions: Table 2; read-out: PTPN2 MSA IC50
T1 construct: made in house
T1 sequence (P17706 with tags, fused parts or gaps isoform P17706-2): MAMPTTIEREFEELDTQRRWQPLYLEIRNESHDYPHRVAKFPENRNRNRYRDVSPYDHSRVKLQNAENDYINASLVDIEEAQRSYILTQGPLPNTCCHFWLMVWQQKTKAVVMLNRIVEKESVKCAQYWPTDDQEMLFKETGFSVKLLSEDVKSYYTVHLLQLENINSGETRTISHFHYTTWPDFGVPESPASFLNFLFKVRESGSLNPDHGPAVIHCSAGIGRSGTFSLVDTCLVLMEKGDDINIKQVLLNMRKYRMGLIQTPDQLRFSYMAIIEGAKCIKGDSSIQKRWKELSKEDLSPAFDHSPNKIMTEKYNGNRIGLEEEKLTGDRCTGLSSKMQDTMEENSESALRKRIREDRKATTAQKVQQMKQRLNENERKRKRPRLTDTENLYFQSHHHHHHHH
Experimental: Example 292: Mobility Shift Assay used to determine potency of PTPN2 inhibitors
Compound activity was determined using in house His tagged PTPN2 (TC45) protein (SEQ ID NO: 1) in an in vitro enzymatic reaction. The enzymatic assay used to determine activity was a mobility shift assay using a LabChip EZ Reader by Caliper Life Sciences. The enzymatic reaction was carried out in assay buffer (50 mM HEPES pH 7.5, 1 mM EGTA, 10 mM EDTA, 0.01% Tween® 20, and 2 mM DTT). The compounds were dispensed on a white 384 well ProxiPlate™ (PerkinElmer Catalog#6008289) plate using the Labcyte Echo at varying concentrations (12 point, 1:3 dilution). The enzyme (at 0.5 nM) was incubated with compound for 10 minutes at room temperature. Then the substrate (phosphorylated insulin receptor probe sequence: ((OG488)—{NH—CH2—CH2—O—CH2—CH2—O—CH2—CO)—T—R—D—I—(PY)—E—T—D—Y—Y—R—K—K—NH2) (SEQ ID NO: 2) was added at 2 μM to the plates and incubated for another 10 minutes at room temperature. Finally, a quench solution (water and 4-bromo-3-(2-oxo-2-propoxyethoxy)-5-(3-{[1-(phenylmethanesulfonyl)piperidin-4-yl]amino}phenyl)thiophene-2-carboxylic acid) was added to the plates, which were then run on the EZ Reader (excitation 488 nm, emission 530 nm) to measure % conversion (the amount of phosphorylated substrate which was de-phosphorylated by PTPN2). […] The % inhibition was then used to calculate the IC50 values.

[2] = target: T2, His tagged full-length PTP1B protein (Homo sapiens, UniProt P18031); assay: Mobility Shift Assay (MSA) used to determine potency of PTP1B inhibitors; format: biochemical; conditions: Table 2
T2 construct: made in house
T2 sequence (P18031 with tags, fused parts or gaps): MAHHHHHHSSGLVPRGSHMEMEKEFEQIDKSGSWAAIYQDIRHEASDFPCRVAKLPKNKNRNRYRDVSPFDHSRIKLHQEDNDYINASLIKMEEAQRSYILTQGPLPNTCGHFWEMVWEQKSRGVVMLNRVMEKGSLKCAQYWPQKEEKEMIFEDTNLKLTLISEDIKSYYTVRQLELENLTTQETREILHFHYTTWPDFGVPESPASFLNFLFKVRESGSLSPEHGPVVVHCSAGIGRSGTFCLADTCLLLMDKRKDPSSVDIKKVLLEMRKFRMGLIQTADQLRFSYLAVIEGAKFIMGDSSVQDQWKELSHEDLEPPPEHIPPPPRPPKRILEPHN
Experimental: The enzymatic assay used to determine activity is a mobility shift assay using a LabChip EZ Reader by Caliper Life Sciences. The enzymatic reaction was carried out in assay buffer (50 mM HEPES pH 7.5, 1 mM EGTA, 10 mM EDTA, 0.01% Tween® 20, and 2 mM DTT). […] The enzyme (at 0.5 nM) was incubated with compound for 10 minutes at room temperature. […] The % inhibition was then used to calculate the IC50 values.

| SMILES | IC50 [2] [nM] | IC50 [1] [nM] |
| --- | --- | --- |
| CC(C)NCCCc1ccc2cc(O)c(N3CC(=O)NS3(=O)=O)c(F)c2c1 [Compound 349, 5-(1-fluoro-3-hydroxy-7-{3-[(propan-2-yl)amino]propyl}naphthalen-2-yl)-1λ^6,2,5-thiadiazolidine-1,1,3-trione] | 1 to 10 | 1 to 10 |
| O=C1CN(c2c(O)cc3ccc(OCCC4CCOC4)cc3c2F)S(=O)(=O)N1 (stereo not shown) [Compound 350, 5-{1-fluoro-3-hydroxy-7-[2-(oxolan-3-yl)ethoxy]naphthalen-2-yl}-1λ^6,2,5-thiadiazolidine-1,1,3-trione] | < 1 | < 1 |
| O=C1CN(c2c(O)cc3ccc(OCCC4CCCC4)cc3c2F)S(=O)(=O)N1 [Compound 351, 5-[7-(2-cyclopentylethoxy)-1-fluoro-3-hydroxynaphthalen-2-yl]-1λ^6,2,5-thiadiazolidine-1,1,3-trione] | < 1 | < 1 |
| CC(C)(C)CCOc1ccc2cc(O)c(N3CC(=O)NS3(=O)=O)c(F)c2c1 [Compound 352, 5-[7-(3,3-dimethylbutoxy)-1-fluoro-3-hydroxynaphthalen-2-yl]-1λ^6,2,5-thiadiazolidine-1,1,3-trione] | < 1 | < 1 |
| O=C1CN(c2c(O)cc3ccc(OCCC4CCC4)cc3c2F)S(=O)(=O)N1 [Compound 353, 5-[7-(2-cyclobutylethoxy)-1-fluoro-3-hydroxynaphthalen-2-yl]-1λ^6,2,5-thiadiazolidine-1,1,3-trione] | < 1 | < 1 |
| CC(C)(O)CCOc1cc2c(F)c(N3CC(=O)NS3(=O)=O)c(O)cc2cc1O [Compound 355, 5-[1-fluoro-3,6-dihydroxy-7-(3-hydroxy-3-methylbutoxy)naphthalen-2-yl]-1λ^6,2,5-thiadiazolidine-1,1,3-trione] | < 1 | < 1 |
| O=C1CN(c2c(O)cc3cc(O)c(OCCC4CC4)cc3c2F)S(=O)(=O)N1 [Compound 356, 5-[7-(2-cyclopropylethoxy)-1-fluoro-3,6-dihydroxynaphthalen-2-yl]-1λ^6,2,5-thiadiazolidine-1,1,3-trione] | < 1 | < 1 |
| CC(C)(C)CCOc1cc2c(F)c(N3CC(=O)NS3(=O)=O)c(O)cc2cc1O [Compound 359, 5-[7-(3,3-dimethylbutoxy)-1-fluoro-3,6-dihydroxynaphthalen-2-yl]-1λ^6,2,5-thiadiazolidine-1,1,3-trione] | < 1 | < 1 |
| CC(C)CCOc1cc2c(F)c(N3CC(=O)NS3(=O)=O)c(O)cc2cc1O [Compound 361, 5-[1-fluoro-3,6-dihydroxy-7-(3-methylbutoxy)naphthalen-2-yl]-1λ^6,2,5-thiadiazolidine-1,1,3-trione] | < 1 | < 1 |
| CCCCOc1cc2c(F)c(N3CC(=O)NS3(=O)=O)c(O)cc2cc1O [Compound 363, 5-(7-butoxy-1-fluoro-3,6-dihydroxynaphthalen-2-yl)-1λ^6,2,5-thiadiazolidine-1,1,3-trione] | < 1 | < 1 |
| O=C1CN(c2c(O)cc3cc(O)c(OCCCC(F)F)cc3c2F)S(=O)(=O)N1 [Compound 365, 5-[7-(4,4-difluorobutoxy)-1-fluoro-3,6-dihydroxynaphthalen-2-yl]-1λ^6,2,5-thiadiazolidine-1,1,3-trione] | < 1 | < 1 |
| O=C1CN(c2c(O)cc3cc(O)c(OCCC4CCOC4)cc3c2F)S(=O)(=O)N1 (stereo not shown) [Compound 367, 5-{1-fluoro-3,6-dihydroxy-7-[2-(oxolan-3-yl)ethoxy]naphthalen-2-yl}-1λ^6,2,5-thiadiazolidine-1,1,3-trione] | < 1 | < 1 |
| COCCCOc1cc2c(F)c(N3CC(=O)NS3(=O)=O)c(O)cc2cc1O [Compound 368, 5-[1-fluoro-3,6-dihydroxy-7-(3-methoxypropoxy)naphthalen-2-yl]-1λ^6,2,5-thiadiazolidine-1,1,3-trione] | < 1 | < 1 |
| O=C1CN(c2c(O)cc3ccc(C4=CCN(S(=O)(=O)CCCO)C4)cc3c2F)S(=O)(=O)N1 [Compound 369, 5-{1-fluoro-3-hydroxy-7-[1-(3-hydroxypropane-1-sulfonyl)-2,5-dihydro-1H-pyrrol-3-yl]naphthalen-2-yl}-1λ^6,2,5-thiadiazolidine-1,1,3-trione] | < 1 | < 1 |

Continued, in another order:

| IC50 [2] [nM] | SMILES | IC50 [1] [nM] |
| --- | --- | --- |
| < 1 | CC(C)(CCN)CCOc1ccc2cc(O)c(N3CC(=O)NS3(=O)=O)c(F)c2c1 [Compound 348, 5-{7-[(5-amino-3,3-dimethylpentyl)oxy]-1-fluoro-3-hydroxynaphthalen-2-yl}-1λ^6,2,5-thiadiazolidine-1,1,3-trione] | < 1 |
| 1 to 10 | O=C1CN(c2c(O)cc3ccc(OCCOC(F)(F)F)cc3c2F)S(=O)(=O)N1 [Compound 354, 5-{1-fluoro-3-hydroxy-7-[2-(trifluoromethoxy)ethoxy]naphthalen-2-yl}-1λ^6,2,5-thiadiazolidine-1,1,3-trione] | 1 to 10 |
| 1 to 10 | COc1cc2c(F)c(N3CC(=O)NS3(=O)=O)c(O)cc2cc1O [Compound 357, 5-(1-fluoro-3,6-dihydroxy-7-methoxynaphthalen-2-yl)-1λ^6,2,5-thiadiazolidine-1,1,3-trione] | 1 to 10 |
| 1 to 10 | CCc1cc2c(F)c(N3CC(=O)NS3(=O)=O)c(O)cc2cc1O [Compound 358, 5-(7-ethyl-1-fluoro-3,6-dihydroxynaphthalen-2-yl)-1λ^6,2,5-thiadiazolidine-1,1,3-trione] | 1 to 10 |
| < 1 | O=C1CN(c2c(O)cc3cc(O)c(OCCC4CCCO4)cc3c2F)S(=O)(=O)N1 (stereo not shown) [Compound 360, 5-{1-fluoro-3,6-dihydroxy-7-[2-(oxolan-2-yl)ethoxy]naphthalen-2-yl}-1λ^6,2,5-thiadiazolidine-1,1,3-trione] | < 1 |
| < 1 | O=C1CN(c2c(O)cc3cc(O)c(OCCC4CCC4)cc3c2F)S(=O)(=O)N1 [Compound 362, 5-[7-(2-cyclobutylethoxy)-1-fluoro-3,6-dihydroxynaphthalen-2-yl]-1λ^6,2,5-thiadiazolidine-1,1,3-trione] | < 1 |
| < 1 | O=C1CN(c2c(O)cc3cc(O)c(OCCC4CCCC4)cc3c2F)S(=O)(=O)N1 [Compound 364, 5-[7-(2-cyclopentylethoxy)-1-fluoro-3,6-dihydroxynaphthalen-2-yl]-1λ^6,2,5-thiadiazolidine-1,1,3-trione] | < 1 |
| < 1 | CC(C)(C#N)CCOc1cc2c(F)c(N3CC(=O)NS3(=O)=O)c(O)cc2cc1O [Compound 366, 4-{[8-fluoro-3,6-dihydroxy-7-(1,1,4-trioxo-1λ^6,2,5-thiadiazolidin-2-yl)naphthalen-2-yl]oxy}-2,2-dimethylbutanenitrile] | < 1 |
| 1 to 10 | O=C1CN(c2c(O)cc3cc(O)c(Br)cc3c2F)S(=O)(=O)N1 [Compound 370, 5-(7-bromo-1-fluoro-3,6-dihydroxynaphthalen-2-yl)-1λ^6,2,5-thiadiazolidine-1,1,3-trione] | 1 to 10 |

— US20230019236A1, “PROTEIN TYROSINE PHOSPHATASE INHIBITORS AND METHODS OF USE THEREOF” (Calico Life Sciences LLC, priority 2019, published 2023)
